Source: ChEMBL document CHEMBL1201862, “PubChem BioAssay data set” (2004)
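Interpolation was linear, between the two tested concentrations surrounding the appropriate level; five concentrations were tested over 48 hours in 96-well plates. GI50 = concentration required for 50% inhibition of growth.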 Calls of active or inactive are those of the source. Rule as the data show it: active = GI50 up to about 1.1 µM and inactive = higher.

What was measured:
Experiment in all cases: DTP human tumour cell line panel, 48 h
SF-295 = system: SF-295
HCC 2998 = system: HCC 2998
UO-31 = system: UO-31
LXFL 529 = system: LXFL 529
CAKI-1 = system: CAKI-1
ACHN = system: ACHN
SK-OV-3 = system: SK-OV-3
DMS-273 = system: DMS-273
SN12C = system: SN12C
KM12 = system: KM12
IGROV-1 = system: IGROV-1
KM-20L2 = system: KM-20L2
HCT-116 = system: HCT-116
XF498 = system: XF498
HL-60 = system: HL-60
OVCAR-4 = system: OVCAR-4
NCI-H522 = system: NCI-H522
M14 = system: M14
K562 = system: K562
SNB-19 = system: SNB-19
A549 = system: A549
HCT-15 = system: HCT-15
HOP-62 = system: HOP-62
HT-29 = system: HT-29
DMS-114 = system: DMS-114
OVCAR-5 = system: OVCAR-5
TK-10 = system: TK-10
EKVX = system: EKVX
NCI-H460 = system: NCI-H460
UACC-62 = system: UACC-62
HOP-92 = system: HOP-92
OVCAR-3 = system: OVCAR-3
CCRF-CEM = system: CCRF-CEM
SR = system: SR
SF-539 = system: SF-539
MOLT-4 = system: MOLT-4
SK-MEL-2 = system: SK-MEL-2
SW-620 = system: SW-620
COLO 205 = system: COLO 205
RPMI-8226 = system: RPMI-8226
Malme-3M = system: Malme-3M
NCI-H226 = system: NCI-H226
SF-268 = system: SF-268
OVCAR-8 = system: OVCAR-8
LOX IMVI = system: LOX IMVI
SK-MEL-28 = system: SK-MEL-28
SNB-75 = system: SNB-75
U-251 = system: U-251
SK-MEL-5 = system: SK-MEL-5
M19-MEL = system: M19-MEL
786-0 = system: 786-0
NCI-H23 = system: NCI-H23
UACC-257 = system: UACC-257
SNB-78 = system: SNB-78

Structure (SMILES): O=C1c2cc3c(cc2[C@@H]2C(O)[C@H]4O[C@H]4C4CCN1C42)OCO3 (some centres undefined)
- GI50 (SF-295): > 37.5 µM (inactive)
- GI50 (HCC 2998): > 37.5 µM (inactive)
- GI50 (UO-31): > 37.5 µM (inactive)
- GI50 (LXFL 529): > 37.5 µM (inactive)
- GI50 (CAKI-1): 25.3 µM (inactive)
- GI50 (ACHN): > 37.5 µM (inactive)
- GI50 (SK-OV-3): > 37.5 µM (inactive)
- GI50 (DMS-273): > 37.5 µM (inactive)
- GI50 (SN12C): > 37.5 µM (inactive)
- GI50 (KM12): > 37.5 µM (inactive)
- GI50 (IGROV-1): > 37.5 µM (inactive)
- GI50 (KM-20L2): > 37.5 µM (inactive)
- GI50 (HCT-116): > 37.5 µM (inactive)
- GI50 (XF498): > 37.5 µM (inactive)
- GI50 (HL-60): > 37.5 µM (inactive)
- GI50 (OVCAR-4): > 37.5 µM (inactive)
- GI50 (NCI-H522): > 37.5 µM (inactive)
- GI50 (M14): > 37.5 µM (inactive)
- GI50 (K562): > 37.5 µM (inactive)
- GI50 (SNB-19): > 37.5 µM (inactive)
- GI50 (A549): > 37.5 µM (inactive)
- GI50 (HCT-15): > 37.5 µM
- GI50 (HOP-62): > 37.5 µM (inactive)
- GI50 (HT-29): > 37.5 µM (inactive)
- GI50 (DMS-114): > 37.5 µM (inactive)
- GI50 (OVCAR-5): > 37.5 µM (inactive)
- GI50 (TK-10): > 37.5 µM (inactive)
- GI50 (EKVX): > 37.5 µM (inactive)
- GI50 (NCI-H460): > 37.5 µM (inactive)
- GI50 (UACC-62): > 37.5 µM (inactive)
- GI50 (HOP-92): > 37.5 µM (inactive)
- GI50 (OVCAR-3): > 37.5 µM (inactive)
- GI50 (CCRF-CEM): > 37.5 µM (inactive)
- GI50 (SR): > 37.5 µM (inactive)
- GI50 (SF-539): > 37.5 µM (inactive)
- GI50 (MOLT-4): > 37.5 µM (inactive)
- GI50 (SK-MEL-2): > 37.5 µM (inactive)
- GI50 (SW-620): > 37.5 µM (inactive)
- GI50 (COLO 205): > 37.5 µM (inactive)
- GI50 (RPMI-8226): > 37.5 µM (inactive)
- GI50 (Malme-3M): > 37.5 µM (inactive)
- GI50 (NCI-H226): > 37.5 µM (inactive)
- GI50 (SF-268): > 37.5 µM (inactive)
- GI50 (OVCAR-8): > 37.5 µM (inactive)
- GI50 (LOX IMVI): > 37.5 µM (inactive)
- GI50 (SK-MEL-28): > 37.5 µM (inactive)

Structure (SMILES): O=C(c1ccccc1)c1c(CC(O)c2cccnc2)n(C(=O)c2ccccc2)c2ccccc12 (centres undefined)
- GI50 (SF-295): 17.4 µM (inactive)
- GI50 (HCC 2998): 16.5 µM (inactive)
- GI50 (UO-31): 14.1 µM (inactive)
- GI50 (SNB-75): 3.72 µM (inactive)
- GI50 (U-251): 17 µM (inactive)
- GI50 (CAKI-1): 26.4 µM (inactive)
- GI50 (ACHN): 22.9 µM (inactive)
- GI50 (DMS-273): 28.2 µM (inactive)
- GI50 (KM12): 18.9 µM (inactive)
- GI50 (IGROV-1): 19.1 µM (inactive)
- GI50 (KM-20L2): 21.3 µM (inactive)
- GI50 (HCT-116): 15.9 µM (inactive)
- GI50 (SK-MEL-5): 16.9 µM (inactive)
- GI50 (XF498): 13.6 µM (inactive)
- GI50 (HL-60): 21.5 µM (inactive)
- GI50 (M19-MEL): 19.7 µM (inactive)
- GI50 (OVCAR-4): 15.2 µM (inactive)
- GI50 (NCI-H522): 13.1 µM (inactive)
- GI50 (M14): 19.1 µM (inactive)
- GI50 (K562): 21.6 µM (inactive)
- GI50 (SNB-19): 18.9 µM (inactive)
- GI50 (786-0): 33.2 µM (inactive)
- GI50 (A549): 29.4 µM (inactive)
- GI50 (HCT-15): 21.3 µM
- GI50 (HOP-62): 16 µM (inactive)
- GI50 (HT-29): 18.8 µM (inactive)
- GI50 (DMS-114): 27.7 µM (inactive)
- GI50 (OVCAR-5): 17.9 µM (inactive)
- GI50 (TK-10): 26.9 µM (inactive)
- GI50 (NCI-H460): 16.9 µM (inactive)
- GI50 (UACC-62): 16.5 µM (inactive)
- GI50 (HOP-92): 15 µM (inactive)
- GI50 (NCI-H23): 16.5 µM (inactive)
- GI50 (OVCAR-3): 16.6 µM (inactive)
- GI50 (CCRF-CEM): 22.5 µM (inactive)
- GI50 (SR): 13.5 µM (inactive)
- GI50 (SF-539): 16.6 µM (inactive)
- GI50 (MOLT-4): 17.9 µM (inactive)
- GI50 (SK-MEL-2): 20.3 µM (inactive)
- GI50 (SW-620): 26.6 µM (inactive)
- GI50 (UACC-257): 22.4 µM (inactive)
- GI50 (COLO 205): 22.3 µM (inactive)
- GI50 (RPMI-8226): 15.8 µM (inactive)
- GI50 (Malme-3M): 23.8 µM (inactive)
- GI50 (NCI-H226): 11.7 µM (inactive)
- GI50 (SF-268): 20 µM (inactive)
- GI50 (OVCAR-8): 25.3 µM (inactive)
- GI50 (SK-MEL-28): 17.7 µM (inactive)

Structure (SMILES): CC(=O)NNc1nc(C)c(C(=O)NNC(=O)C(=O)Nc2ccc(Cl)cc2)s1
- GI50 (SF-295): > 100 µM (inactive)
- GI50 (HCC 2998): > 100 µM (inactive)
- GI50 (UO-31): > 100 µM (inactive)
- GI50 (U-251): > 100 µM (inactive)
- GI50 (LXFL 529): 34.7 µM (inactive)
- GI50 (ACHN): 54.6 µM (inactive)
- GI50 (SK-OV-3): > 100 µM (inactive)
- GI50 (SN12C): > 100 µM (inactive)
- GI50 (KM12): > 100 µM (inactive)
- GI50 (IGROV-1): > 100 µM (inactive)
- GI50 (KM-20L2): > 100 µM (inactive)
- GI50 (HCT-116): > 100 µM (inactive)
- GI50 (SK-MEL-5): > 100 µM (inactive)
- GI50 (SNB-78): > 100 µM (inactive)
- GI50 (XF498): > 100 µM (inactive)
- GI50 (HL-60): > 100 µM (inactive)
- GI50 (M19-MEL): > 100 µM (inactive)
- GI50 (OVCAR-4): 47 µM (inactive)
- GI50 (NCI-H522): 31.8 µM (inactive)
- GI50 (M14): > 100 µM (inactive)
- GI50 (K562): 46.2 µM (inactive)
- GI50 (SNB-19): > 100 µM (inactive)
- GI50 (786-0): > 100 µM (inactive)
- GI50 (A549): > 100 µM (inactive)
- GI50 (HCT-15): > 100 µM
- GI50 (HOP-62): > 100 µM (inactive)
- GI50 (HT-29): > 100 µM (inactive)
- GI50 (OVCAR-5): > 100 µM (inactive)
- GI50 (TK-10): > 100 µM (inactive)
- GI50 (EKVX): > 100 µM (inactive)
- GI50 (NCI-H460): > 100 µM (inactive)
- GI50 (UACC-62): > 100 µM (inactive)
- GI50 (HOP-92): 39.5 µM (inactive)
- GI50 (NCI-H23): > 100 µM (inactive)
- GI50 (OVCAR-3): 28.9 µM (inactive)
- GI50 (CCRF-CEM): 25.3 µM (inactive)
- GI50 (SR): 68.5 µM (inactive)
- GI50 (SF-539): > 100 µM (inactive)
- GI50 (MOLT-4): 37.4 µM (inactive)
- GI50 (SK-MEL-2): > 100 µM (inactive)
- GI50 (SW-620): 54.6 µM (inactive)
- GI50 (UACC-257): > 100 µM (inactive)
- GI50 (COLO 205): > 100 µM (inactive)
- GI50 (RPMI-8226): > 100 µM (inactive)
- GI50 (Malme-3M): > 100 µM (inactive)
- GI50 (NCI-H226): > 100 µM (inactive)
- GI50 (SF-268): 49.7 µM (inactive)
- GI50 (OVCAR-8): > 100 µM (inactive)
- GI50 (LOX IMVI): 53 µM (inactive)
- GI50 (SK-MEL-28): > 100 µM (inactive)
